Drawing on the NIST ThermoML archive (doi:10.1021/je1000878), this text covers viscosity for 2 molecules.

SMILES strings stand for the structures. ± gives the expanded uncertainty stated by the source.

The nature of the series: cn = amount concentration of the nth substance listed, in mol/dm3. The following applies: 101.3 kPa, Liquid, c1 = 2.

As usually defined, the viscosity is the resistance of a fluid to flow. On to `O=[N+]([O-])[O-].[Na+]` [sodium nitrate] + O, for which the viscosity is, setting by setting: (298.15 K) 1.036 ± 0.014 mPa·s; (303.15 K) 0.9367 ± 0.013 mPa·s; (308.15 K) 0.8519 ± 0.012 mPa·s; (313.15 K) 0.7777 ± 0.011 mPa·s; (318.15 K) 0.7167 ± 0.0099 mPa·s; (323.15 K) 0.6559 ± 0.0092 mPa·s. Further, under “328.15 K”, the viscosity is 0.6043 ± 0.0086 mPa·s.
Take `[Cl-].[Na+]` [sodium chloride] + O: the viscosity came to 1.085 ± 0.014 mPa·s (298.15 K); 0.9761 ± 0.013 mPa·s (303.15 K); 0.8816 ± 0.012 mPa·s (308.15 K); 0.8069 ± 0.011 mPa·s (313.15 K); 0.7426 ± 0.01 mPa·s (318.15 K); 0.676 ± 0.0095 mPa·s (323.15 K). Further, the viscosity (328.15 K) was 0.6257 ± 0.0088 mPa·s.
